Drawing on ChEMBL document CHEMBL1132824, “Highly specific inhibitory effect of three-component hybrid liposomes including sugar surfactants on the growth of glioma cells” (Bioorg Med Chem Lett, 2000), this text covers Activity for three compounds.

The test system of assay [1] is U-251. The assay can be described thus: Compound along with Tween 20 and SucCn was evaluated for inhibitory effect on growth of glioma (U251) cells; Effective. It counts as functional, cell-based. As to conditions: Homo sapiens.
Assay [2] has as its system U-251. The assay can be described thus: Compound alone was evaluated for inhibitory effect on growth of glioma (U251) cells; Ineffective. It counts as functional, cell-based. Particulars: Homo sapiens.

Take `CCCCCCCCCCCCCC(=O)OCC(COP(=O)([O-])OCC[N+](C)(C)C)OC(=O)CCCCCCCCCCCCC` (stereo unspecified): the Activity result with U-251 [1] is “Effective”; in the assay on U-251 [2], “Ineffective”.

Turning to `CCCCCCCCCCCC(=O)OC[C@@H]1O[C@H](O[C@]2(CO)O[C@H](CO)[C@@H](O)[C@@H]2O)[C@@H](O)[C@@H](O)[C@@H]1O`, the Activity result in the assay on U-251 [1] is “Effective”; in the assay on U-251 [2], “Ineffective”.

With `CCCCCCCCCC(=O)OC[C@@H]1OC(O[C@]2(CO)OC(CO)C(O)[C@@H]2O)[C@@H](O)[C@H](O)[C@H]1O` (single isomer, unassigned), the Activity entry with U-251 [1] is “Effective”; in the assay on U-251 [2] it was “Ineffective”.
